Assays:
HL-60 cells = assay: Anti-tumor efficacy in subcutaneous HL-60 xenograft model; assay type: in vivo, female NOG mice; conditions: for antitumor activity compared with the control group: day 12; for Tumor volume / Tumor Size (mm^3) at day 12, Mean ± SEM: listed as AZA
Procedure: HL-60 cells (a human promyelocytic leukemia cell line, ATCC® cat #CCL-240) were maintained in suspension culture in complete cell growth medium at 37° C. in an atmosphere with 5% CO2. The cells were split twice a week to maintain an exponential growth. After culturing, cells were harvested and counted for tumor inoculation.
To establish the xenograft model, HL-60 cells (10×10^6) were suspended in 0.2 mL of PBS with the same volume of Matrigel and subcutaneously injected into the right flank of each mouse. When tumor volume reaches a mean value of approximately 72 mm^3, i.e., on day 6 after inoculation, mice were divided into several groups and treated with PBS (control group), anti-CD47 antibody (i.e., T4J), AZA, or a combination of T4J and AZA, respectively.
At the time of routine monitoring, the animals were daily checked for any effects of tumor growth and treatments on normal behavior such as mobility, food and water consumption (by looking only), body weight gain/loss (body weights were measured twice a week), eye/hair matting and any other abnormal effects. Death and observed clinical signs were recorded.
Tumor size was measured twice a week in two dimensions using a caliper, and the volume was calculated using the formula: Volume (V)=(L×W×W)/2, where L is tumor length (the longest tumor dimension) and W is tumor width (the longest tumor dimension perpendicular to L). The tumor volume was then used for calculating T/C values. The T/C value (in percentage) is an indicator of antitumor effectiveness, in which T and C are the mean volumes of the treatment group and the control groups, respectively.
The percentage of tumor growth inhibition (TGI) was calculated for each group as follows: 100%×(1−[(Vtreated(^final day)−Vtreated(^initial day))/Vcontrol(^final day)−Vcontrol(^initial day)))], where V is the tumor volume.
Tumor body weight was measured at the end of the study. T/C weight value (in percentage) was calculated using the formula: T/C weight %=T weight/C weight×100% where T weight and C weight were the mean tumor body weight of the treatment group and the control group (vehicle group), respectively.
Q=TGI(A+B))/(TGI(A)+TGI(B)−TGI(A)×TGI(B))
According to Jin's formula, Q<0.85 indicates antagonistic effect, 0.85≤Q<1.15 indicates additive effect, and Q≥1.15 indicates synergistic effect.
T-test was performed to compare tumor body weight among groups. One-way ANOVA was performed to compare tumor volume among groups, and when a significant F-statistics (a ratio of treatment variance to the error variance) was obtained, comparisons between groups were carried out with Games-Howell test. All data were analyzed using IBM SPSS software. A P value of less than 0.05 (p<0.05) was considered statistically significant.

Calreticulin = assay: FACS analysis of expression level of calreticulin on tumor cell surface; assay type: cell-based, Human; conditions: Toledo cells; for Mean Fluorescence Intensity (MFI) Calreticulin: 12 hours
Procedure: (§1) For FACS analysis, on the day of analysis (day 1), Toledo cells were seeded into 96 well plate and cultured at a density of 0.2×10^6 cells/well. Then the cells were treated with the selected small molecule therapeutic agents for 12 hours.
(§2) On day 2, cells were harvested, washed twice and then re-suspended in 100 uL FACS buffer subject to FACS analysis. For detection of the expression of calreticulin and CD47, cells were incubated with anti-calreticulin antibody and commercially available anti-CD47 antibody (BD Biosciences, Catalog number: 561249) in dark at 4° C. for 30 mins.
(§3) Then, the cells were subject to FACS analysis. Data was acquired and analyzed.

CD47 = assay: FACS analysis of expression level of CD47 on tumor cell surface; assay type: cell-based, Human; conditions: Toledo cells; for Mean Fluorescence Intensity (MFI) CD47: 12 hours
Procedure: as §1, §2, §3

Toledo Cells = assay: FACS-based phagocytosis assay, macrophages cocultured with Toledo cells; assay type: cell-based, Human
Procedure: FACS-based phagocytosis assays were performed to evaluate the phagocytic abilities of macrophages.
Toledo Cells (a tumor cell line, as a target) were labelled with CellTrace™ Far Red and plated into 96-well plate at a density of 0.15×10^6 cells/well for 12 hours. The Macrophages were prepared as discussed above and then labelled with CellTrace Violet. Next, the macrophages were added into the plate as an effector at an effector:target (Toledo) ratio of 1:3, giving a final density of macrophages at 0.05×10^6 cells/well. Macrophages and tumor cells were cocultured for 2-6 h at 37° C. in the presence of the indicated treatments (small molecule therapeutic agents, CD47 antibody, CD20 antibody or combinations). The incubation time depending on the phagocytosis rate, expecting phagocytosis of 5-20% cells.
Then, cells were acquired and data were analyzed.

Nc1ncn([C@@H]2O[C@H](CO)[C@@H](O)[C@H]2O)c(=O)n1 [Azacitidine]
antitumor activity compared with the control group (HL-60 cells; 1 mg/kg): no obvious antitumor activity
antitumor activity compared with the control group (HL-60 cells; 2 mg/kg): certain anti-tumor activity
Tumor volume (mm^3), Mean ± SEM (HL-60 cells; day 0 (first dosing), 1 mg/kg): 70 ± 7 mm^3
Tumor volume (mm^3), Mean ± SEM (HL-60 cells; day 0 (first dosing), 2 mg/kg): 70 ± 7 mm^3
Tumor volume (mm^3), Mean ± SEM (HL-60 cells; day 3, 1 mg/kg): 189 ± 11 mm^3
Tumor volume (mm^3), Mean ± SEM (HL-60 cells; day 3, 2 mg/kg): 161 ± 20 mm^3
Tumor volume (mm^3), Mean ± SEM (HL-60 cells; day 7, 1 mg/kg): 589 ± 41 mm^3
Tumor volume (mm^3), Mean ± SEM (HL-60 cells; day 7, 2 mg/kg): 498 ± 82 mm^3
Tumor volume (mm^3), Mean ± SEM (HL-60 cells; day 10, 1 mg/kg): 1142 ± 86 mm^3
Tumor volume (mm^3), Mean ± SEM (HL-60 cells; day 10, 2 mg/kg): 773 ± 145 mm^3
T/C (%) (HL-60 cells; day 12, 1 mg/kg): 70.21%
TGI (%) (HL-60 cells; day 12, 1 mg/kg): 30.52%
Tumor volume / Tumor Size (mm^3) at day 12, Mean ± SEM (HL-60 cells; day 12, 1 mg/kg): 2081±177 mm^3
T/C (%) (HL-60 cells; day 12, 2 mg/kg): 48.98%
TGI (%) (HL-60 cells; day 12, 2 mg/kg): 52.27%
Tumor volume / Tumor Size (mm^3) at day 12, Mean ± SEM (HL-60 cells; day 12, 2 mg/kg): 1452±253 mm^3
Mean Fluorescence Intensity (MFI) Calreticulin (Calreticulin; 0.008 uM): 65.8
Mean Fluorescence Intensity (MFI) Calreticulin (Calreticulin; 0.04 uM): 71.9
Mean Fluorescence Intensity (MFI) Calreticulin (Calreticulin; 0.2 uM): 88.4
Mean Fluorescence Intensity (MFI) Calreticulin (Calreticulin; 1 uM): 174
Mean Fluorescence Intensity (MFI) Calreticulin (Calreticulin; 5 uM): 491
increase of the expression level of calreticulin (Calreticulin; dose of 5 μM): about 20 folds
Mean Fluorescence Intensity (MFI) CD47 (CD47; 0.008 uM): 8204
Mean Fluorescence Intensity (MFI) CD47 (CD47; 0.04 uM): 8062
Mean Fluorescence Intensity (MFI) CD47 (CD47; 0.2 uM): 8460
Mean Fluorescence Intensity (MFI) CD47 (CD47; 1 uM): 6638
Mean Fluorescence Intensity (MFI) CD47 (CD47; 5 uM): 5229
inhibition of CD47 expression (CD47; dose of 5 μM): ~50%
macrophage phagocytosis (untreated = 1.00) (Toledo Cells; Cpd 0.0016 uM, T4J = 0, R = 0): 1.09
macrophage phagocytosis (untreated = 1.00) (Toledo Cells; Cpd 0.0016 uM, T4J = 0, R = 0.01 ug/ml): 1.63
macrophage phagocytosis (untreated = 1.00) (Toledo Cells; Cpd 0.0016 uM, T4J = 0.1 ug/ml, R = 0): 2.66
macrophage phagocytosis (untreated = 1.00) (Toledo Cells; Cpd 0.0016 uM, T4J = 0.1 ug/ml, R = 0.01 ug/ml): 3.26
macrophage phagocytosis (untreated = 1.00) (Toledo Cells; Cpd 0.008 uM, T4J = 0, R = 0): 1.07
macrophage phagocytosis (untreated = 1.00) (Toledo Cells; Cpd 0.008 uM, T4J = 0, R = 0.01 ug/ml): 1.73
macrophage phagocytosis (untreated = 1.00) (Toledo Cells; Cpd 0.008 uM, T4J = 0.1 ug/ml, R = 0): 2.69
macrophage phagocytosis (untreated = 1.00) (Toledo Cells; Cpd 0.008 uM, T4J = 0.1 ug/ml, R = 0.01 ug/ml): 3.18
macrophage phagocytosis (untreated = 1.00) (Toledo Cells; Cpd 0.04 uM, T4J = 0, R = 0): 1.12
macrophage phagocytosis (untreated = 1.00) (Toledo Cells; Cpd 0.04 uM, T4J = 0, R = 0.01 ug/ml): 1.71
macrophage phagocytosis (untreated = 1.00) (Toledo Cells; Cpd 0.04 uM, T4J = 0.1 ug/ml, R = 0): 2.76
macrophage phagocytosis (untreated = 1.00) (Toledo Cells; Cpd 0.04 uM, T4J = 0.1 ug/ml, R = 0.01 ug/ml): 3.29
macrophage phagocytosis (untreated = 1.00) (Toledo Cells; Cpd 0.2 uM, T4J = 0, R = 0): 1.16
macrophage phagocytosis (untreated = 1.00) (Toledo Cells; Cpd 0.2 uM, T4J = 0, R = 0.01 ug/ml): 1.69
macrophage phagocytosis (untreated = 1.00) (Toledo Cells; Cpd 0.2 uM, T4J = 0.1 ug/ml, R = 0): 2.57
macrophage phagocytosis (untreated = 1.00) (Toledo Cells; Cpd 0.2 uM, T4J = 0.1 ug/ml, R = 0.01 ug/ml): 3.13
macrophage phagocytosis (untreated = 1.00) (Toledo Cells; Cpd 1 uM, T4J = 0, R = 0): 1.30
macrophage phagocytosis (untreated = 1.00) (Toledo Cells; Cpd 1 uM, T4J = 0, R = 0.01 ug/ml): 1.94
macrophage phagocytosis (untreated = 1.00) (Toledo Cells; Cpd 1 uM, T4J = 0.1 ug/ml, R = 0): 2.70
macrophage phagocytosis (untreated = 1.00) (Toledo Cells; Cpd 1 uM, T4J = 0.1 ug/ml, R = 0.01 ug/ml): 3.45
phagocytic ability of macrophages (Toledo Cells; agent itself or antibody combination): can also enhance the phagocytic ability of macrophages
phagocytic ability of macrophages (Toledo Cells; triple combination: T4J, Rituximab and the small molecule): enhances the phagocytic ability of macrophages much higher

From patent US20230174649A1, “PHARMACEUTICAL COMPOSITIONS CONTAINING ANTI-CD47 ANTIBODIES” (I-MAB BIOPHARMA US LIMITED, priority 2020, published 2023)
